Laboratory results: patent publication US7985836B2, “Antimicrobial peptides and methods of identifying the same” (priority 2006, dated 2011)
Where two headings read alike, the source gives them in different places. Square brackets hold non-standard residues; d marks the D form. Ends that are not written are not given here. Peptide text beside a SMILES is read from it. Phg = N[C@H](C(=O)O)c1ccccc1

Assays:
[1] = Analytical reversed-phase HPLC retention time as a measure of hydrophobicity; assay type: physicochemical; settings: for tRP, retention time on a reversed-phase HPLC column as a measure of hydrophobicity: Table 1, 1 mL/min, ~25° C.; for tRP, retention time on a reversed-phase HPLC column as a measure of hydrophobicity / tRP, retention time on a reverse-phase column of HPLC as a measure of hydrophobicity: Vydac C18, acetonitrile 5% to 95%; for tRP, retention time on a reverse-phase column of HPLC as a measure of hydrophobicity: Table 4, 1 ml/min
Method: Analytical Reversed-Phase HPLC. The retention time of the peptide was measured on an ISCO (Lincoln, Nebr.) HPLC system equipped with a Vydac (Hesperia, Calif.) C18 reversed-phase column (250×4.6 mm) at an ambient temperature of ˜25° C. The peptide was eluted with a linear gradient of acetonitrile (containing 0.1% TFA) from 5% to 95% at a flow rate of 1 mL/min. Peptides were detected by UV absorbance at 215 nm.
Analytical reverse-phase HPLC. The retention time of each peptide was measured on an ISCO HPLC system equipped with aVydac C18 reverse-phase column (250×4.6 mm). The peptide was eluted with a linear gradient of acetonitrile (containing 0.1% TFA) from 5% to 95% at a flow rate of 1 ml/min. Peptides were detected by UV absorbance at 215 nm.

drug-resistant KBv = experiment: Anticancer/cytotoxicity MTT assay, KBv cells; assay type: cell-based; settings: peptide concentration that kills 50% of the cells, 68 hours of exposure, read-out: KBv LC50
Method: (§1) Anticancer Assays. Cytotoxicity studies were performed using the calorimetric MTT assays for assessing cell viability (Mark et al. (1999) Life Sci., 64:1941-1953; Hansen et al. (1989) J. Immunol. Methods, 119:203-210). Three cell lines were used, including drug-resistant KBv, drug-sensitive KB, and the nontransformed human brain microvessel endothelial cells (HBMEC). In brief, the cells were seeded onto 96-well plates at a density of 5000 cells per well. The cells were exposed to various concentrations (5-320 μM) of LL-37 peptides (triplicate assays for each) 24 hours after seeding. After 68 hours of exposure, the peptide solution was replaced with fresh media and followed by cytotoxicity analysis using the MTT assay.
(§2) The MTT assay was performed by incubating the cells with 5 mg/mL of 3-[4,5-dimethylthiazol-2-yl]-2,5-dephenyltetrazolium bromide (MTT) for 2 hours at 37° C. The cells were then solubilized in a 50:50 mixture of dimethyl formamide (DMF) and H2O containing 20% SDS (pH 4.7). The plates were read after overnight incubation. Viability is directly proportional to the amount of metabolic conversion of MTT to formazin in the mitochondria of living cells and is assessed by measuring the absorbance at 550 nm using a Microkinetics Reader (Fisher Biotech). Viability is expressed as a percent of control cells receiving only culture media without any peptides. The data from the cytotoxicity studies were plotted using Microsoft Excel, and the LC50 (concentration resulting in 50% reduction in cell viability) and standard deviations were determined for each peptide.

[2] = Cytotoxicity MTT assay, HBMEC; assay type: cell-based; settings: normal human cells, peptide concentration that kills 50% of the cells, 68 hours of exposure, read-out: HBMEC LC50
Method: as §1, §2

drug-sensitive KB = assay type: cell-based; settings: peptide concentration that kills 50% of the cells; MTT, 68 hours of exposure
Method: as §1, §2

wild type E. coli K12 = assay type: cell-based
Method: Antibacterial Assays. The antibacterial activity of the LL-37 peptides and its analogues was analyzed using the standard approach of microdilution (Wang et al. (2005) J. Biol. Chem., 280:5803-5811; Yu et al. (2002) J. Pept. Res., 60:1-9). In brief, a small culture of wild type E. coli K12 was grown overnight. A fresh culture was inoculated with a small aliquot of the overnight culture and incubated at 37° C. until the optical density reached the mid-logarithmic stage. The culture (90 μL each) was then diluted to an A600 of 0.001 and partitioned into a 96-well plate with ˜10^6 cells per well. […] Each peptide assay was repeated 3 times. The plate was then further incubated at 37° C. overnight (˜16 hours) and read on an Ultra Microplate Reader at 620 nm (Bio-TEK Instruments; Winooski, Vt.).

E. coli strain K12 3000 [3] = settings: minimum concentration at which E. coli growth is completely inhibited; from Wang et al. (2005) J. Biol. Chem. 280:5803; cited from earlier work
E. coli strain K12 3000 [4] = experiment: Antibacterial assay, microdilution MIC (Example 2); assay type: cell-based; settings: minimum concentration at which E. coli growth is completely inhibited
Method: Antibacterial assay. The antibacterial activity of the peptides was analyzed using the standard microdilution approach (Wang et al. (2005) J. Biol. Chem., 280:5803-5811). In brief, a small culture of E. coli strain K12 3000 was grown overnight. A fresh culture was inoculated with a small aliquot of the overnight culture and incubated at 37° C. until the culture reached the logarithmic stage (A600 ˜0.5, 9×10^8 cells/ml). The culture was then diluted to A600 ˜0.001 and partitioned into a 96-well plate with ˜10^6 cells per well (90 μl each). Then, 10 μl aliquots of the peptide at different concentrations (three assays for each) were added to the cultures, allowing the minimum inhibition concentration (MIC) to be measured. The plate was then further incubated overnight (˜16 hours) at 37° C. and read on an Ultra Microplate Reader at 620 nm (Bio-TEK Instruments).

Escherichia coli D21 = settings: Escherichia coli D21, previous assays (Johansson 1998; Oren 1999); cited from earlier work
[5] = minimum inhibitory concentration, wild type E. coli K12, overnight (~16 hours) at 37° C.

GLFDKLKSLVSDDKK [anchor, bacterial membrane anchor of glucose-specific enzyme IIA of E. coli, reference compound]
retention time on reversed-phase HPLC (hydrophobicity) [1]: 29.5 min
tRP, retention time on a reversed-phase HPLC column as a measure of hydrophobicity [1]: 29.5 min
tRP, retention time on a reverse-phase column of HPLC as a measure of hydrophobicity [1]: 29.5 min

CC[C@H](C)[C@H](NC(=O)[C@H](CCCCN)NC(=O)[C@H](CCCCN)NC(=O)[C@@H](NC(=O)[C@@H](NC(=O)[C@H](CC(=O)O)NC(=O)[C@H](Cc1ccccc1)NC(=O)[C@H](CC(C)C)NC(=O)CN)[C@@H](C)CC)[C@@H](C)CC)C(=O)N[C@@H](C)C(=O)N[C@@H](CCC(=O)O)C(=O)N[C@@H](CO)C(=O)N[C@H](C(N)=O)c1ccccc1 [F13X-aurein 1.2, GLFDIIKKIAESX] (H-GLFDIIKKIAES[Phg]-NH2; N-terminus and C-terminus assumed)
retention time on reversed-phase HPLC (hydrophobicity) [1]: 38.3 min
tRP, retention time on a reverse-phase column of HPLC as a measure of hydrophobicity [1]: 38.3 min

FKRIVQRIKDFLR-NH2 [LL-37(17-29), FKRIVQRIKDFLR]
CC50 (drug-resistant KBv): 60 µM
CC50 at 68 h [2]: 55 ± 2 µM
KB LC50 (drug-sensitive KB): 57 ± 3 µM
E. Coli MIC (wild type E. coli K12; [5]): 40 µM

GLFDIIKKIAESF [aurein 1.2, antimicrobial and anticancer peptide isolated from the Australian Bell Frog, reference compound]
retention time on reversed-phase HPLC (hydrophobicity) [1]: 43 min
tRP, retention time on a reversed-phase HPLC column as a measure of hydrophobicity [1]: 42.0 min
tRP, retention time on a reverse-phase column of HPLC as a measure of hydrophobicity [1]: 43.0 min
MIC (E. coli strain K12 3000 [3]): 75 µM

FKRIVQRIKDFLRNLV-NH2 [LL-37(17-32), FKRIVQRIKDFLRNLV]
CC50 (drug-resistant KBv): 30 µM
CC50 at 68 h [2]: 25 ± 1 µM
KB LC50 (drug-sensitive KB): 30 ± 1 µM
E. Coli MIC (wild type E. coli K12; K12, 16 h): 20 µM

GLFDIIKKIAESW-NH2 (C-terminus assumed) [F13W-aurein 1.2, GLFDIIKKIAESW]
tRP, retention time on a reverse-phase column of HPLC as a measure of hydrophobicity [1]: 40.5 min
MIC (E. coli strain K12 3000 [4]): 320 µM

CC[C@H](C)[C@H](NC(=O)[C@H](CCCCN)NC(=O)[C@H](CCC(=O)O)NC(=O)[C@H](CCCCN)NC(=O)[C@H](CO)NC(=O)[C@H](CCCCN)NC(=O)[C@H](CCCNC(=N)N)NC(=O)[C@H](Cc1ccccc1)NC(=O)[C@H](Cc1ccccc1)NC(=O)[C@H](CC(=O)O)NC(=O)CNC(=O)[C@H](CC(C)C)NC(=O)[C@@H](N)CC(C)C)C(=O)NCC(=O)N[C@@H](CCCCN)C(=O)N[C@@H](CCC(=O)O)C(=O)N[C@@H](Cc1ccccc1)C(=O)N[C@@H](CCCCN)C(=O)N[C@@H](CCCNC(=N)N)C(=O)N[C@H](C(=O)N[C@H](C(=O)N[C@@H](CCC(N)=O)C(=O)N[C@@H](CCCNC(=N)N)C(=O)N[C@H](C(=O)N[C@@H](CCCCN)C(=O)N[C@@H](CC(=O)O)C(=O)N[C@@H](Cc1ccccc1)C(=O)N[C@@H](CC(C)C)C(=O)N[C@@H](CCCNC(=N)N)C(=O)N[C@@H](CC(N)=O)C(=O)N[C@@H](CC(C)C)C(=O)N[C@H](C(=O)N1CCC[C@H]1C(=O)N[C@@H](CCCNC(=N)N)C(=O)N[C@H](C(=O)N[C@@H](CCC(=O)O)C(=O)N[C@@H](CO)C(=O)O)[C@@H](C)O)C(C)C)[C@@H](C)CC)C(C)C)[C@@H](C)CC [LL-37, reference compound]
MIC (Escherichia coli D21): 5 to 25 µM
E. Coli MIC (wild type E. coli K12; [5]): 40 µM

RLFDKIRQVIRKF-NH2 (C-terminus assumed) [LLAA, RLFDKIRQVIRKF]
retention time on reversed-phase HPLC (hydrophobicity) [1]: 30.8 min
tRP, retention time on a reverse-phase column of HPLC as a measure of hydrophobicity [1]: 30.8 min

LLGDFKRIVQRIKDF-NH2 [LL-37(1-4, 17-27), LLGDFKRIVQRIKDF]
CC50 (drug-resistant KBv): > 320 µM
CC50 at 68 h [2]: > 320 µM
E. Coli MIC (wild type E. coli K12; [5]): 250 µM

LLGDFFRKSKEK [LL-37(1-12), LLGDFFRKSKEK]
CC50 (drug-resistant KBv): > 320 µM
CC50 at 68 h [2]: > 320 µM

IGKEFKRIVQRIKDFLRNLVPRTES [LL-37(13-37)]
CC50 (drug-resistant KBv): 39 µM
CC50 at 68 h [2]: 38 ± 3 µM
KB LC50 (drug-sensitive KB): 40 ± 0 µM
E. Coli MIC (wild type E. coli K12; K12, 16 h): 80 µM
